A short description of this data set: Bioavailability of a solution in a water-soluble polymer: plasma levels after oral administration. It counts as in vivo. Conditions: dogs, control formulation: untreated original drug (20 µm) with equal amount of corn starch in gelatin capsule, 100 mg/Dog, HPLC (Fig. 4). Here is the method: 5-[(2,4-dioxothiazolidin-5-yl)methyl]-2-[(2-naphthyl)methyl]benzoxazole (3 g) was dissolved in polyethyleneglycol (average molecule weight: approximately 380-420, trade name: Macrogol-400, Sanyo Chemical Industries Ltd.) (100 ml) to provide the preparation of the present invention. Mixture of an equal amount of untreated original drug (particle size: 20 µm) and corn starch was encapsulated in a gelatin capsule to give a formulation used as a control.
Four dogs (10 - 15 kg) were used in this experiment. The preparation of the invention was administered to dogs orally at the dose of 10 mg/Dog. In the separate experiment, the control formulation was administered at 100 mg/Dog. The blood was taken from the dogs and the concentration of the active compound (I) in the plasma sample was assayed in the same manner as described in the above. The time-course of the plasma levels of the drug was plotted.
In the figure, closed circles represent the average plasma levels of the compound (I) following the administration of the solution of the invention, and semi-closed circles represent those following the administration of untreated original drug.

On to `O=C1NC(=O)C(Cc2ccc3oc(Cc4ccc5ccccc5c4)nc3c2)S1` (stereo not shown) [raw material, 5-[(2,4-dioxothiazolidin-5-yl)methyl]-2-[(2-naphthyl)methyl]benzoxazole], for which the “plasma levels of the compound (I)” value is reported as “extremely low”.

(Values after patent EP0535269A1, “Pharmaceutical compositions containing thiazolidinedione derivatives” (TANABE SEIYAKU CO., LTD., priority 1991, dated 1993).)
